Data taken from US8354269B2 (priority 2008, dated 2013).
Read-outs that look alike come from different tables or passages of the source.

Assays:
[1] = tested on: Clostridium autoethanogenum DSM10061
Procedure: High Performance Liquid Chromatography (HPLC) was used to characterize the level of substrates and products such as for acetate, ethanol, fructose, xylose and pyruvate. HPLC System Agilent 1100 Series. Mobile Phase: 0.0025N Sulphuric Acid. Flow and pressure: 0.800 mL/min. Column: Alltech IOA; Catalog #9648, 150×6.5 mm, particle size 5 μm. Temperature of column: 60° C. Detector: Refractive Index. Temperature of detector: 45° C.
Method for sample preparation: 400 μL of sample+50 μL of 0.15M ZnSO4+50 μL of 0.15M Ba(OH)2 into an Eppendorf tube. Centrifuge 10 min at 12,000 rpm, 4° C. Transfer 200 μL supernatant into an HPLC vial and inject into the HPLC instrument 5 μL.
The serum bottles were charged with CO containing gas (2% H2; 30% N2; 47% CO; 21% CO2) to an overpressure of 30 psi. The gas was purged and refreshed at time=54 h. Growth was monitored by measuring the optical density at 600 nm (OD600nm) and metabolites were detected by HPLC.

[2] = tested on: Clostridium ljungdahlii DSM13528
[3] = tested on: Clostridium autoethanogenum culture 19630
Procedure: To determine the cell density in these experiments, the absorbance of the samples was measured at 600 nm (spectrophotometer) and the dry mass determined by extrapolation.
Sterile 234 ml serum bottles were purged three times with 95% CO, 5% CO2 gas and then evacuated to a vacuum of −5 psi. The serum bottles were charged with 25 ml of LM33 media. Additional NiCl2 solutions were optionally added to the serum bottle (to final concentrations of 0.1 mM and 1 mM) which were inoculated with 1 ml of an actively growing Clostridium autoethanogenum culture 19630 from a continuous bioreactor. The headspace of the serum bottle was then filled with CO containing gas to 30 psi (composition 100% CO). The serum bottles were incubated at 37° C. and continuously agitated. Samples were taken at intervals and the headspace was purged and refreshed up to 30 psi following sampling.

In the case of `[Cl][Ni][Cl]` [Nickel, nickel chloride], the Ethanol ([1]; Nickel 200 μM, 0 h) is reported as 0.22 ± 0.02 g/L, the OD600 nm ([1]; Nickel 200 μM, 0 h) is reported as 0.009 ± 0.001 and the Ethanol ([1]; Nickel 200 μM, 30 h) is reported as 0.22 ± 0.03 g/L. The OD600 nm ([1]; Nickel 200 μM, 30 h) was 0.038 ± 0.010, the Acetate ([1]; Nickel 200 μM, 54 h) was 0.12 ± 0.02 g/L and the Ethanol ([1]; Nickel 200 μM, 54 h) was 0.23 ± 0.03 g/L. It also gave an OD600 nm ([1]; Nickel 200 μM, 54 h) of 0.052 ± 0.022, an Acetate ([1]; Nickel 200 μM, 102 h) of 0.83 ± 0.53 g/L and an Ethanol ([1]; Nickel 200 μM, 102 h) of 0.23 ± 0.01 g/L. It also gave an OD600 nm ([1]; Nickel 200 μM, 102 h) of 0.223 ± 0.141, an Acetate ([1]; Nickel 200 μM, 127 h) of 1.48 ± 0.54 g/L and an Ethanol ([1]; Nickel 200 μM, 127 h) of 0.30 ± 0.19 g/L. For the same molecule, the OD600 nm ([1]; Nickel 200 μM, 127 h) was 0.333 ± 0.131, the Ethanol ([1]; Nickel 400 μM, 0 h) was 0.22 ± 0.02 g/L and the OD600 nm ([1]; Nickel 400 μM, 0 h) was 0.010 ± 0.001. For the same molecule, the Ethanol ([1]; Nickel 400 μM, 30 h) was 0.22 ± 0.02 g/L, the OD600 nm ([1]; Nickel 400 μM, 30 h) was 0.065 ± 0.002 and the Acetate ([1]; Nickel 400 μM, 54 h) was 0.18 ± 0.10 g/L. For the same molecule, the Ethanol ([1]; Nickel 400 μM, 54 h) was 0.21 ± 0.02 g/L, the OD600 nm ([1]; Nickel 400 μM, 54 h) was 0.087 ± 0.011 and the Acetate ([1]; Nickel 400 μM, 102 h) was 1.05 ± 0.85 g/L. The Ethanol ([1]; Nickel 400 μM, 102 h) was 0.68 ± 0.41 g/L, the OD600 nm ([1]; Nickel 400 μM, 102 h) was 0.337 ± 0.129 and the Acetate ([1]; Nickel 400 μM, 127 h) was 1.44 ± 0.83 g/L. It also gave an Ethanol ([1]; Nickel 400 μM, 127 h) of 0.68 ± 0.21 g/L, an OD600 nm ([1]; Nickel 400 μM, 127 h) of 0.452 ± 0.200 and an Ethanol ([1]; Nickel 700 μM, 0 h) of 0.23 ± 0.03 g/L. It also gave an OD600 nm ([1]; Nickel 700 μM, 0 h) of 0.011 ± 0.001, an Ethanol ([1]; Nickel 700 μM, 30 h) of 0.24 ± 0.02 g/L and an OD600 nm ([1]; Nickel 700 μM, 30 h) of 0.238 ± 0.023. The Acetate ([1]; Nickel 700 μM, 54 h) was 0.25 ± 0.01 g/L, the Ethanol ([1]; Nickel 700 μM, 54 h) was 0.25 ± 0.03 g/L and the OD600 nm ([1]; Nickel 700 μM, 54 h) was 0.292 ± 0.013. It also gave an Acetate ([1]; Nickel 700 μM, 102 h) of 0.94 ± 0.14 g/L, an Ethanol ([1]; Nickel 700 μM, 102 h) of 0.73 ± 0.05 g/L and an OD600 nm ([1]; Nickel 700 μM, 102 h) of 0.714 ± 0.060. The Acetate ([1]; Nickel 700 μM, 127 h) was 0.95 ± 0.16 g/L, the Ethanol ([1]; Nickel 700 μM, 127 h) was 0.72 ± 0.03 g/L and the OD600 nm ([1]; Nickel 700 μM, 127 h) was 0.620 ± 0.021. The Ethanol ([1]; Nickel 1000 μM, 0 h) was 0.29 ± 0.04 g/L, the OD600 nm ([1]; Nickel 1000 μM, 0 h) was 0.010 ± 0.001 and the Ethanol ([1]; Nickel 1000 μM, 30 h) was 0.28 ± 0.02 g/L. The OD600 nm ([1]; Nickel 1000 μM, 30 h) was 0.268 ± 0.080, the Acetate ([1]; Nickel 1000 μM, 54 h) was 0.38 ± 0.01 g/L and the Ethanol ([1]; Nickel 1000 μM, 54 h) was 0.26 ± 0.03 g/L. For the same molecule, the OD600 nm ([1]; Nickel 1000 μM, 54 h) was 0.389 ± 0.071, the Acetate ([1]; Nickel 1000 μM, 102 h) was 1.57 ± 0.21 g/L and the Ethanol ([1]; Nickel 1000 μM, 102 h) was 1.02 ± 0.09 g/L. It also gave an OD600 nm ([1]; Nickel 1000 μM, 102 h) of 0.720 ± 0.105, an Acetate ([1]; Nickel 1000 μM, 127 h) of 1.78 ± 0.11 g/L and an Ethanol ([1]; Nickel 1000 μM, 127 h) of 0.99 ± 0.11 g/L. The OD600 nm ([1]; Nickel 1000 μM, 127 h) was 0.674 ± 0.098, the Ethanol ([2]; Nickel 200 μM, 0 h) was 0.23 ± 0.02 g/L and the OD600 nm ([2]; Nickel 200 μM, 0 h) was 0.010 ± 0.001. The Acetate ([2]; Nickel 200 μM, 30 h) was 0.07 ± 0.07 g/L, the Ethanol ([2]; Nickel 200 μM, 30 h) was 0.23 ± 0.02 g/L and the OD600 nm ([2]; Nickel 200 μM, 30 h) was 0.057 ± 0.003. For the same molecule, the Acetate ([2]; Nickel 200 μM, 54 h) was 0.24 ± 0.10 g/L, the Ethanol ([2]; Nickel 200 μM, 54 h) was 0.27 ± 0.03 g/L and the OD600 nm ([2]; Nickel 200 μM, 54 h) was 0.163 ± 0.053. For the same molecule, the Acetate ([2]; Nickel 200 μM, 102 h) was 0.38 ± 0.10 g/L, the Ethanol ([2]; Nickel 200 μM, 102 h) was 0.57 ± 0.11 g/L and the OD600 nm ([2]; Nickel 200 μM, 102 h) was 0.273 ± 0.001. The Acetate ([2]; Nickel 200 μM, 127 h) was 0.77 ± 0.24 g/L, the Ethanol ([2]; Nickel 200 μM, 127 h) was 0.58 ± 0.07 g/L and the OD600 nm ([2]; Nickel 200 μM, 127 h) was 0.284 ± 0.010. For the same molecule, the Ethanol ([2]; Nickel 400 μM, 0 h) was 0.22 ± 0.02 g/L, the OD600 nm ([2]; Nickel 400 μM, 0 h) was 0.011 ± 0.002 and the Ethanol ([2]; Nickel 400 μM, 30 h) was 0.22 ± 0.01 g/L. For the same molecule, the OD600 nm ([2]; Nickel 400 μM, 30 h) was 0.097 ± 0.024, the Acetate ([2]; Nickel 400 μM, 54 h) was 0.15 ± 0.04 g/L and the Ethanol ([2]; Nickel 400 μM, 54 h) was 0.21 ± 0.02 g/L. It also gave an OD600 nm ([2]; Nickel 400 μM, 54 h) of 0.114 ± 0.030, an Acetate ([2]; Nickel 400 μM, 102 h) of 0.20 ± 0.01 g/L and an Ethanol ([2]; Nickel 400 μM, 102 h) of 0.53 ± 0.31 g/L. The OD600 nm ([2]; Nickel 400 μM, 102 h) was 0.199 ± 0.103, the Acetate ([2]; Nickel 400 μM, 127 h) was 0.30 ± 0.19 g/L and the Ethanol ([2]; Nickel 400 μM, 127 h) was 0.77 ± 0.24 g/L. It also gave an OD600 nm ([2]; Nickel 400 μM, 127 h) of 0.310 ± 0.017, an Ethanol ([2]; Nickel 700 μM, 0 h) of 0.25 ± 0.01 g/L and an OD600 nm ([2]; Nickel 700 μM, 0 h) of 0.009 ± 0.001. For the same molecule, the Ethanol ([2]; Nickel 700 μM, 30 h) was 0.24 ± 0.01 g/L, the OD600 nm ([2]; Nickel 700 μM, 30 h) was 0.235 ± 0.076 and the Acetate ([2]; Nickel 700 μM, 54 h) was 0.21 ± 0.05 g/L. For the same molecule, the Ethanol ([2]; Nickel 700 μM, 54 h) was 0.35 ± 0.11 g/L, the OD600 nm ([2]; Nickel 700 μM, 54 h) was 0.427 ± 0.182 and the Acetate ([2]; Nickel 700 μM, 102 h) was 0.24 ± 0.03 g/L. The Ethanol ([2]; Nickel 700 μM, 102 h) was 0.73 ± 0.01 g/L, the OD600 nm ([2]; Nickel 700 μM, 102 h) was 0.579 ± 0.062 and the Acetate ([2]; Nickel 700 μM, 127 h) was 0.34 ± 0.16 g/L. It also gave an Ethanol ([2]; Nickel 700 μM, 127 h) of 0.82 ± 0.03 g/L, an OD600 nm ([2]; Nickel 700 μM, 127 h) of 0.528 ± 0.054 and an Ethanol ([2]; Nickel 1000 μM, 0 h) of 0.24 ± 0.01 g/L. It also gave an OD600 nm ([2]; Nickel 1000 μM, 0 h) of 0.011 ± 0.001, an Ethanol ([2]; Nickel 1000 μM, 30 h) of 0.26 ± 0.01 g/L and an OD600 nm ([2]; Nickel 1000 μM, 30 h) of 0.549 ± 0.049. For the same molecule, the Acetate ([2]; Nickel 1000 μM, 54 h) was 0.23 ± 0.02 g/L, the Ethanol ([2]; Nickel 1000 μM, 54 h) was 0.42 ± 0.14 g/L and the OD600 nm ([2]; Nickel 1000 μM, 54 h) was 0.691 ± 0.017. It also gave an Acetate ([2]; Nickel 1000 μM, 102 h) of 0.31 ± 0.03 g/L, an Ethanol ([2]; Nickel 1000 μM, 102 h) of 0.68 ± 0.26 g/L and an OD600 nm ([2]; Nickel 1000 μM, 102 h) of 0.862 ± 0.324. It also gave an Acetate ([2]; Nickel 1000 μM, 127 h) of 0.46 ± 0.03 g/L, an Ethanol ([2]; Nickel 1000 μM, 127 h) of 0.98 ± 0.11 g/L and an OD600 nm ([2]; Nickel 1000 μM, 127 h) of 0.853 ± 0.329. The “total microbial cell density” value ([3]; 0.1 mM nickel above LM33) was 1.1 g/L, the “total microbial cell density” value ([3]; 1 mM nickel above LM33) was 1.2 g/L and the Acetate ([3]; Additional Nickel 0.1 mM, 18 h) was 0.57 g/L. The “Cell density” value ([3]; Additional Nickel 0.1 mM, 18 h) was 0.14 g/L, the Ethanol ([3]; Additional Nickel 0.1 mM, 18 h) was 0.37 g/L and the Acetate ([3]; Additional Nickel 0.1 mM, 30 h) was 0.61 g/L. For the same molecule, the “Cell density” value ([3]; Additional Nickel 0.1 mM, 30 h) was 0.54 g/L, the Ethanol ([3]; Additional Nickel 0.1 mM, 30 h) was 2.63 g/L and the Acetate ([3]; Additional Nickel 0.1 mM, 80 h) was 0.38 g/L. The “Cell density” value ([3]; Additional Nickel 0.1 mM, 80 h) was 1.08 g/L, the Ethanol ([3]; Additional Nickel 0.1 mM, 80 h) was 7.14 g/L and the Acetate ([3]; Additional Nickel 1 mM, 18 h) was 0.48 g/L. The “Cell density” value ([3]; Additional Nickel 1 mM, 18 h) was 0.18 g/L, the Ethanol ([3]; Additional Nickel 1 mM, 18 h) was 0.47 g/L and the Acetate ([3]; Additional Nickel 1 mM, 30 h) was 0.85 g/L. For the same molecule, the “Cell density” value ([3]; Additional Nickel 1 mM, 30 h) was 0.59 g/L, the Ethanol ([3]; Additional Nickel 1 mM, 30 h) was 2.59 g/L and the Acetate ([3]; Additional Nickel 1 mM, 80 h) was 0.66 g/L. For the same molecule, the “Cell density” value ([3]; Additional Nickel 1 mM, 80 h) was 1.23 g/L and the Ethanol ([3]; Additional Nickel 1 mM, 80 h) was 9.04 g/L.
